Laboratory results taken from patent publication US20210317092A1 (BAYER PHARMA AKTIENGESELLSCHAFT, priority 2016, published 2021).
Read-outs that look alike come from different tables or passages of the source.

Molecular target: T1, human Bradykinin B1 receptor (Homo sapiens, UniProt P46663)
T1 construct: host or cells: CHO-K1
T1 sequence (P46663 1-353): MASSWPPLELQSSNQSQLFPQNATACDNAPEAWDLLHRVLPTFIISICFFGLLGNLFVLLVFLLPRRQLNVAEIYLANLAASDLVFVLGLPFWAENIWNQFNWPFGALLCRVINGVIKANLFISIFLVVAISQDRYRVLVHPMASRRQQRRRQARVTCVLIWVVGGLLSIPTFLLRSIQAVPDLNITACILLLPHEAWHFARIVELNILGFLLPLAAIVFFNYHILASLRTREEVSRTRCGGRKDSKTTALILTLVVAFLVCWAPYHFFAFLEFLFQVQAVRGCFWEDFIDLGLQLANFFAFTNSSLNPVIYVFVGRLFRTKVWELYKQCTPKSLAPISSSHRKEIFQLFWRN
Assay: Calcium flux Assay (FLIPR) with recombinant CHO-K1 cells expressing human Bradykinin B1 receptor, in presence (hB1 IC50) or absence (hB1 free IC50) of 0.1% BSA
Type: cell-based
Description: The potency to inhibit the Bradykinin B1 receptor was determined for the compounds of this invention in a cell-based fluorescent calcium-mobilisation assay. The assay measures the ability of test compounds to inhibit Bradykinin B1 receptor agonist-induced increase of intracellular free Ca^2+ in the cell line expressing Bradykinin B1 receptor. […] The change of the intracellular Ca^2+ concentration is monitored with a fluorescent plate reader FLIPR TETRA® (Molecular Devices).
Calcium flux Assays (FLIPR) with cells expressing human Bradykinin B1 receptor (hB1)
CHO-K1 cell line expressing human Bradykinin B1 receptor was purchased from Euroscreen (Gosselies, Belgium, with reference name hB1-D1). The cells were grown in Nutrient Mixture Ham's F12 (Sigma) containing 10% Foetal bovine serum (Sigma) and 400 μg/mL G418 (Sigma), 5 μg/mL puromycim (Sigma). […]
Cells were seeded in a volume of 50 μL in medium without antibiotics and incubated overnight in a humidified atmosphere with 5% CO2 at 37° C. […] The calcium indicator loaded cells were incubated at 37° C. for 2 hrs. Extracellular dye was then removed and each well was filled with 45 μL of assay buffer. Cell plates were kept in dark until used. Compound examples were assayed at 8 concentrations in triplicate. Serial 10-fold dilutions in 100% DMSO were made at a 100-times higher concentration than the final concentration, and then diluted 1:10 in assay buffer. 5 μL of each diluted compound was added to the well of cell plates (yielding final concentration with 1% DMSO), and incubated for 30 min at 28° C. before the addition of Bradykinin B1 receptor agonist on the FLIPR instrument.
A peptide antagonist Lys-(Des-Arg-Leu)-Bradykinin (Bachem, Brackley) at 20 µM was used to determine the full inhibition as control.
Peak fluorescence was used to determine the response to agonist obtained at each concentration of compound examples by the following equation:
% Response=100*(RFU(compound)−RFU(control))/(RFU(DMSO)−RFU(control)) • RFU means relative fluorescence units. • Control means full inhibition by the peptide antagonist Lys-(Des-Arg-Leu)-Bradykinin at 20 µM.
The response values were plotted against the logarithm of the compound concentrations. The compound examples were tested in triplicates per plate and mean values were plotted in Excel XLfit to determine IC50 values, percentage of maximal inhibition and the Hill slopes.

[1] = in presence of 0.1% BSA, read-out: hB1 IC50
[2] = in absence of 0.1% BSA, read-out: hB1 free IC50

Row | SMILES | IC50 [1] | IC50 [2]
1 | CCOc1ccc(-c2ccc(NC(=O)C(C)(C)c3cccc(Cl)c3)cc2-c2nnn[nH]2)cn1 [Example 67, 2-(3-chlorophenyl)-N-[4-(6-ethoxypyridin-3-yl)-3-(1H-tetrazol-5-yl)phenyl]-2-methyl-propanamide] | 394 nM | –
2 | CCOc1ccc(-c2ccc(NC(=O)C3(c4cccc(Cl)c4)CCC3)cc2-c2nnn[nH]2)cn1 [Example 68, 1-(3-chlorophenyl)-N-[4-(6-ethoxypyridin-3-yl)-3-(1H-tetrazol-5-yl)phenyl] cyclobutane-carboxamide] | 1410 nM | –
3 | CCOc1ccc(-c2ccc(NC(=O)C3(c4ccc(Cl)cn4)CC3)cc2-c2nnn[nH]2)cn1 [Example 85, 1-(5-chloropyridin-2-yl)-N-[4-(6-ethoxypyridin-3-yl)-3-(1H-tetrazol-5-yl)phenyl] cyclopropane-carboxamide] | 63.1 nM | –
4 | CCOc1ccc(-c2ccc(NC(=O)C3(c4ccc(F)c(OC)c4)CC3)cc2-c2nnn[nH]2)cn1 [Example 87, N-[4-(6-ethoxypyridin-3-yl)-3-(1H-tetrazol-5-yl)phenyl]-1-(4-fluoro-3-methoxyphenyl) cyclopropane-carboxamide] | 88 nM | 60 nM
5 | CCOc1ccc(-c2ccc(NC(=O)C3(C)CC3)cc2-c2nnn[nH]2)cn1 [Example 88, N-[4-(6-ethoxypyridin-3-yl)-3-(1H-tetrazol-5-yl)phenyl]-1-methyl-cyclopropane-carboxamide] | 111 nM | –
6 | CCOc1ccc(-c2ccc(NC(=O)C3(CC(C)C)CC3)cc2-c2nnn[nH]2)cn1 [Example 89, N-[4-(6-ethoxypyridin-3-yl)-3-(1H-tetrazol-5-yl)phenyl]-1-isobuty-l cyclopropane-carboxamide] | 615 nM | 541 nM
7 | CCOc1ccc(-c2ccc(NC(=O)C3(C(C)C)CC3)cc2-c2nnn[nH]2)cn1 [Example 90, N-[4-(6-ethoxypyridin-3-yl)-3-(1H-tetrazol-5-yl)phenyl]-1-isopropyl-cyclopropane-carboxamide] | 1560 nM | –
8 | CCOc1ccc(-c2ccc(NC(=O)C3(c4cccc(F)c4Cl)CC3)cc2-c2nnn[nH]2)cn1 [Example 106, 1-(2-chloro-3-fluorophenyl)-N-[4-(6-ethoxypyridin-3-yl)-3-(1H-tetrazol-5-yl)phenyl] cyclopropane-carboxamide] | 56 nM | –
9 | CCOc1ccc(-c2ccc(NC(=O)C3(c4cccc(Cl)n4)CC3)cc2-c2nnn[nH]2)cn1 [Example 107, 1-(6-chloropyridin-2-yl)-N-[4-(6-ethoxypyridin-3-yl)-3-(1H-tetrazol-5-yl)phenyl] cyclopropane-carboxamide] | 134 nM | 177 nM
10 | CCOc1ccc(-c2ccc(NC(=O)C3(c4ccc(Cl)nc4)CC3)cc2-c2nnn[nH]2)cn1 [Example 108, 1-(6-chloropyridin-3-yl)-N-[4-(6-ethoxypyridin-3-yl)-3-(1H-tetrazol-5-yl)phenyl] cyclopropane-carboxamide] | 338 nM | –
11 | COc1ccc(-c2ccc(NC(=O)C3(c4ccc(C)cc4)CC3)cc2-c2nnn[nH]2)cc1 [Example 115, N-[4′-methoxy-2-(1H-tetrazol-5-yl)biphenyl-4-yl]-1-(4-methylphenyl) cyclopropane-carboxamide] | 169 nM | –
12 | COc1ccc(-c2ccc(NC(=O)C3(c4cccc(Cl)c4)CC3)cc2-c2nnn[nH]2)cc1C [Example 116, 1-(3-chlorophenyl)-N-[4′-methoxy-3′-methyl-2-(1H-tetrazol-5-yl)biphenyl-4-yl]cyclopropane carboxamide] | 177 nM | –
13 | COc1ccc(-c2ccc(NC(=O)C3(c4cccc(Cl)c4)CC3)cc2-c2nnn[nH]2)cc1Cl [Example 117, N-[3′-chloro-4′-methoxy-2-(1H-tetrazol-5-yl)biphenyl-4-yl]-1-(3-chlorophenyl) cyclopropane-carboxamide] | 448 nM | –
14 | COc1ccc(-c2ccc(NC(=O)C3(c4cccc(Cl)c4)CC3)cc2-c2nnn[nH]2)c(C)c1 [Example 118, 1-(3-chlorophenyl)-N-[4′-methoxy-2′-methyl-2-(1H-tetrazol-5-yl)biphenyl-4-yl]cyclopropane carboxamide] | 1820 nM | –
15 | O=C(Nc1ccc(-c2cc(F)cc(C(F)(F)F)c2)c(-c2nnn[nH]2)c1)C1(c2ccc(C(F)(F)F)cc2F)CC1 [Example 129, N-[3′-fluoro-2-(1H-tetrazol-5-yl)-5′-(trifluoromethyl)biphenyl-4-yl]-1-[2-fluoro-4-(trifluoromethyl)phenyl] cyclopropane-carboxamide] | – | 77.2 nM
16 | O=C(Nc1ccc(-c2cc(F)cc(C(F)(F)F)c2)c(-c2nnn[nH]2)c1)C1(c2cccc(Cl)c2)CC1 [Example 130, 1-(3-chlorophenyl)-N-[3′-fluoro-2-(1H-tetrazol-5-yl)-5′-(trifluoromethyl)biphenyl-4-yl]cyclopropane carboxamide] | – | 362 nM

Continued by falling IC50 [1], values first:

Row | IC50 [1] | IC50 [2] | SMILES
17 | 46.4 nM | – | CCOc1ccc(-c2ccc(NC(=O)C3(c4cc(OC)ccc4F)CC3)cc2-c2nnn[nH]2)cn1 [Example 104, N-[4-(6-ethoxypyridin-3-yl)-3-(1H-tetrazol-5-yl)phenyl]-1-(2-fluoro-5-methoxyphenyl) cyclopropane-carboxamide]
18 | 41.8 nM | 19 nM | CCOc1ccc(-c2ccc(NC(=O)C3(c4cc(F)cc(F)c4)CC3)cc2-c2nnn[nH]2)cn1 [Example 84, 1-(3,5-difluorophenyl)-N-[4-(6-ethoxypyridin-3-yl)-3-(1H-tetrazol-5-yl)phenyl] cyclopropane-carboxamide]
19 | 38.3 nM | – | COCc1ccc(-c2ccc(NC(=O)C3(c4cccc(Cl)c4)CC3)cc2-c2nnn[nH]2)cc1C [Example 124, 1-(3-chlorophenyl)-N-[4′-(methoxymethyl)-3′-methyl-2-(1H-tetrazol-5-yl)biphenyl-4-yl]cyclopropane carboxamide]
20 | 37.1 nM | 39.3 nM | CCOc1ccc(-c2ccc(NC(=O)C3(c4ccccc4Cl)CC3)cc2-c2nnn[nH]2)cn1 [Example 93, 1-(2-chlorophenyl)-N-[4-(6-ethoxypyridin-3-yl)-3-(1H-tetrazol-5-yl)phenyl] cyclopropane-carboxamide]
21 | 28.1 nM | – | CCOc1ccc(-c2ccc(NC(=O)C3(c4cc(F)cc(OC)c4)CC3)cc2-c2nnn[nH]2)cn1 [Example 103, N-[4-(6-ethoxypyridin-3-yl)-3-(1H-tetrazol-5-yl)phenyl]-1-(3-fluoro-5-methoxyphenyl) cyclopropane-carboxamide]
22 | 24 nM | 12 nM | CCOc1ccc(-c2ccc(NC(=O)C3(c4ccc(C)c(F)c4)CC3)cc2-c2nnn[nH]2)cn1 [Example 76, N-[4-(6-ethoxypyridin-3-yl)-3-(1H-tetrazol-5-yl)phenyl]-1-(3-fluoro-4-methylphenyl) cyclopropane-carboxamide]
23 | 22.7 nM | 14.1 nM | CCOc1ccc(-c2ccc(NC(=O)C3(c4ccc(Cl)cc4F)CC3)cc2-c2nnn[nH]2)cn1 [Example 75, 1-(4-chloro-2-fluorophenyl)-N-[4-(6-ethoxypyridin-3-yl)-3-(1H-tetrazol-5-yl)phenyl] cyclopropane-carboxamide]
24 | 18.7 nM | 7.76 nM | CCOc1ccc(-c2ccc(NC(=O)C3(c4ccc(OC(F)(F)F)cc4)CC3)cc2-c2nnn[nH]2)cn1 [Example 74, N-[4-(6-ethoxypyridin-3-yl)-3-(1H-tetrazol-5-yl)phenyl]-1-[4-(trifluoromethoxy)phenyl] cyclopropane-carboxamide]
25 | 14.5 nM | 10.4 nM | CCOc1ccc(-c2ccc(NC(=O)C3(c4cccc(CC)c4)CC3)cc2-c2nnn[nH]2)cn1 [Example 95, N-[4-(6-ethoxypyridin-3-yl)-3-(1H-tetrazol-5-yl)phenyl]-1-(3-ethylphenyl) cyclopropane-carboxamide]
26 | 12.2 nM | – | CCOc1ccc(-c2ccc(NC(=O)C3(C4CCC(C)(C)CC4)CC3)cc2-c2nnn[nH]2)cn1 [Example 109, 1-(4,4-dimethylcyclo-hexyl)-N-[4-(6-ethoxypyridin-3-yl)-3-(1H-tetrazol-5-yl)phenyl] cyclopropane-carboxamide]
